How the values were obtained:
[1] = molecular target: Delta-type opioid receptor (Homo sapiens) (UniProt P41143); details: Compound concentration 10.0 uM
[2] = molecular target: Death-associated protein kinase 1 (Homo sapiens) (UniProt P53355); details: Compound concentration 1000.0 nM
[3] = molecular target: Serine/threonine-protein kinase 24 (Homo sapiens) (UniProt Q9Y6E0); details: Compound concentration 1000.0 nM
[4] = molecular target: Phosphorylase b kinase regulatory subunit alpha, liver isoform (Homo sapiens) (UniProt P46019); details: Compound concentration 1000.0 nM
[5] = molecular target: Mitogen-activated protein kinase kinase kinase 15 (Homo sapiens) (UniProt Q6ZN16); details: Compound concentration 1000.0 nM
[6] = molecular target: STE20-like serine/threonine-protein kinase (Homo sapiens) (UniProt Q9H2G2); details: Compound concentration 1000.0 nM
[7] = molecular target: Myosin light chain kinase (Homo sapiens) (UniProt Q32MK0); details: Compound concentration 1000.0 nM
[8] = molecular target: Phosphatidylinositol 4-phosphate 3-kinase C2 domain-containing subunit beta (Homo sapiens) (UniProt O00750); details: Compound concentration 1000.0 nM
[9] = molecular target: Serine/threonine-protein kinase 32C (Homo sapiens) (UniProt Q86UX6); details: Compound concentration 1000.0 nM
[10] = molecular target: Mitogen-activated protein kinase kinase kinase 20 (Homo sapiens) (UniProt Q9NYL2); details: Compound concentration 1000.0 nM
[11] = molecular target: Serine/threonine-protein kinase Nek1 (Homo sapiens) (UniProt Q96PY6); details: Compound concentration 1000.0 nM
[12] = molecular target: Serine/threonine-protein kinase 16 (Homo sapiens) (UniProt O75716); details: Compound concentration 1000.0 nM
[13] = molecular target: Interferon-induced, double-stranded RNA-activated protein kinase (Homo sapiens) (UniProt P19525); details: Compound concentration 1000.0 nM
[14] = molecular target: Leucine-rich repeat serine/threonine-protein kinase 2 (Homo sapiens) (UniProt Q5S007); details: Compound concentration 1000.0 nM
[15] = molecular target: LIM domain kinase 1 (Homo sapiens) (UniProt P53667); details: Compound concentration 1000.0 nM
[16] = molecular target: Serine/threonine-protein kinase ULK1 (Homo sapiens) (UniProt O75385); details: Compound concentration 1000.0 nM
[17] = molecular target: Muscarinic acetylcholine receptor M5 (Homo sapiens) (UniProt P08912); details: Compound concentration 10.0 uM
[18] = tested on: Mast/stem cell growth factor receptor Kit (Homo sapiens), P10721 [V559D,T670I]; details: Compound concentration 1000.0 nM
[19] = molecular target: Angiopoietin-1 receptor (Homo sapiens) (UniProt Q02763); details: Compound concentration 1000.0 nM
[20] = molecular target: MAP/microtubule affinity-regulating kinase 3 (Homo sapiens) (UniProt P27448); details: Compound concentration 1000.0 nM
[21] = molecular target: Alpha-2A adrenergic receptor (Homo sapiens) (UniProt P08913); details: Compound concentration 10.0 uM
[22] = molecular target: Phosphatidylinositol 4-phosphate 5-kinase type-1 gamma (Homo sapiens) (UniProt O60331); details: Compound concentration 1000.0 nM
[23] = molecular target: 5-hydroxytryptamine receptor 1A (Homo sapiens) (UniProt P08908); details: Compound concentration 10.0 uM
[24] = molecular target: 5-hydroxytryptamine receptor 1B (Homo sapiens) (UniProt P28222); details: Compound concentration 10.0 uM
[25] = molecular target: Serine/threonine-protein kinase 25 (Homo sapiens) (UniProt O00506); details: Compound concentration 1000.0 nM
[26] = molecular target: Tyrosine-protein kinase Fes/Fps (Homo sapiens) (UniProt P07332); details: Compound concentration 1000.0 nM
[27] = molecular target: Phosphatidylinositol 5-phosphate 4-kinase type-2 beta (Homo sapiens) (UniProt P78356); details: Compound concentration 1000.0 nM
[28] = molecular target: Serine/threonine-protein kinase TBK1 (Homo sapiens) (UniProt Q9UHD2); details: Compound concentration 1000.0 nM
[29] = molecular target: Proto-oncogene tyrosine-protein kinase receptor Ret (Homo sapiens) (UniProt P07949); details: Compound concentration 1000.0 nM
[30] = molecular target: Aurora kinase B (Homo sapiens) (UniProt Q96GD4); details: Compound concentration 1000.0 nM
[31] = tested on: Tyrosine-protein kinase ABL1 (Homo sapiens), P00519 [F317I]; details: Compound concentration 1000.0 nM
[32] = molecular target: Membrane-associated tyrosine- and threonine-specific cdc2-inhibitory kinase (Homo sapiens) (UniProt Q99640); details: Compound concentration 1000.0 nM
[33] = molecular target: G protein-coupled receptor kinase 4 (Homo sapiens) (UniProt P32298); details: Compound concentration 1000.0 nM
[34] = molecular target: Ephrin type-B receptor 2 (Homo sapiens) (UniProt P29323); details: Compound concentration 1000.0 nM
[35] = molecular target: Aurora kinase A (Homo sapiens) (UniProt O14965); details: Compound concentration 1000.0 nM
[36] = tested on: Tyrosine-protein kinase ABL1 (Homo sapiens), P00519 [Y253F]; details: Compound concentration 1000.0 nM
[37] = molecular target: Serine/threonine-protein kinase 10 (Homo sapiens) (UniProt O94804); details: Compound concentration 1000.0 nM
[38] = molecular target: Cyclin-dependent kinase 19 (Homo sapiens) (UniProt Q9BWU1); details: Compound concentration 1000.0 nM
[39] = molecular target: Serine/threonine-protein kinase N1 (Homo sapiens) (UniProt Q16512); details: Compound concentration 1000.0 nM
[40] = molecular target: Tyrosine-protein kinase JAK2 (Homo sapiens) (UniProt O60674); details: Compound concentration 1000.0 nM
[41] = molecular target: Serine/threonine-protein kinase Nek4 (Homo sapiens) (UniProt P51957); details: Compound concentration 1000.0 nM
[42] = molecular target: TGF-beta receptor type-1 (Homo sapiens) (UniProt P36897); details: Compound concentration 1000.0 nM
[43] = molecular target: MAP kinase-activated protein kinase 2 (Homo sapiens) (UniProt P49137); details: Compound concentration 1000.0 nM
[44] = molecular target: Ribosomal protein S6 kinase alpha-5 (Homo sapiens) (UniProt O75582); details: Compound concentration 1000.0 nM
[45] = molecular target: Serine/threonine-protein kinase PRP4 homolog (Homo sapiens) (UniProt Q13523); details: Compound concentration 1000.0 nM

MAP/microtubule affinity-regulating kinase 3 (Homo sapiens), sequence (P27448 whole entry, looked up): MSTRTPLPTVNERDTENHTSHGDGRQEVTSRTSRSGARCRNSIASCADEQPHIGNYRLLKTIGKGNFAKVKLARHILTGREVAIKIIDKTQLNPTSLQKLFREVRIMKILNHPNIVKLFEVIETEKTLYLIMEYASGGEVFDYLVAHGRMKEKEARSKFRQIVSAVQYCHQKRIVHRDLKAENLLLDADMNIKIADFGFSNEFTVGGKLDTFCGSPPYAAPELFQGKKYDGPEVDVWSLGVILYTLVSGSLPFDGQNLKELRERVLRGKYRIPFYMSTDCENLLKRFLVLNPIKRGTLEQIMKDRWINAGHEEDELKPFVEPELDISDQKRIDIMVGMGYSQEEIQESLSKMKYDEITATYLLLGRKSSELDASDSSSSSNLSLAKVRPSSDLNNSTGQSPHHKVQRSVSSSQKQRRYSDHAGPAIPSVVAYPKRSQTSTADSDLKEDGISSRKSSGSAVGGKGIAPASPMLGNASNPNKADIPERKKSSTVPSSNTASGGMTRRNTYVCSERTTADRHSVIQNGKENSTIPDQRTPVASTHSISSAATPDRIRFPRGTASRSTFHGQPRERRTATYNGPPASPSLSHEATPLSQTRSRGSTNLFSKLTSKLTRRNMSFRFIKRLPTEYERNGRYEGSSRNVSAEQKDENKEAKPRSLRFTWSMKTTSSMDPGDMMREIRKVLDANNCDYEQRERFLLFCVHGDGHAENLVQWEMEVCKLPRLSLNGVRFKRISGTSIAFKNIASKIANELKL
Membrane-associated tyrosine- and threonine-specific cdc2-inhibitory kinase (Homo sapiens), sequence (Q99640 whole entry): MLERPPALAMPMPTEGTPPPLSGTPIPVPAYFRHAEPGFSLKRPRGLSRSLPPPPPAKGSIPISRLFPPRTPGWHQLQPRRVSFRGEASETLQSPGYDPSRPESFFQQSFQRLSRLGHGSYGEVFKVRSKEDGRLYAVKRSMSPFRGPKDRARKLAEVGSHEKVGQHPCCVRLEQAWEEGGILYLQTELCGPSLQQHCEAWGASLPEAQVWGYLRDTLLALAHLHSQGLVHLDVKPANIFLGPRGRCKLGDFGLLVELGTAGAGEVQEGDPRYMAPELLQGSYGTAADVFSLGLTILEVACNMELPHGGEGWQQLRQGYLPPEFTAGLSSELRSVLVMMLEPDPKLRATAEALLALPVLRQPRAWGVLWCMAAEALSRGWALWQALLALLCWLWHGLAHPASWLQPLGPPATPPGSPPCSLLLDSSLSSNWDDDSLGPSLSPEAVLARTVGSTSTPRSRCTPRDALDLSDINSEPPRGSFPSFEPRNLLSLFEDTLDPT
Death-associated protein kinase 1 (Homo sapiens), sequence (P53355 whole entry, looked up): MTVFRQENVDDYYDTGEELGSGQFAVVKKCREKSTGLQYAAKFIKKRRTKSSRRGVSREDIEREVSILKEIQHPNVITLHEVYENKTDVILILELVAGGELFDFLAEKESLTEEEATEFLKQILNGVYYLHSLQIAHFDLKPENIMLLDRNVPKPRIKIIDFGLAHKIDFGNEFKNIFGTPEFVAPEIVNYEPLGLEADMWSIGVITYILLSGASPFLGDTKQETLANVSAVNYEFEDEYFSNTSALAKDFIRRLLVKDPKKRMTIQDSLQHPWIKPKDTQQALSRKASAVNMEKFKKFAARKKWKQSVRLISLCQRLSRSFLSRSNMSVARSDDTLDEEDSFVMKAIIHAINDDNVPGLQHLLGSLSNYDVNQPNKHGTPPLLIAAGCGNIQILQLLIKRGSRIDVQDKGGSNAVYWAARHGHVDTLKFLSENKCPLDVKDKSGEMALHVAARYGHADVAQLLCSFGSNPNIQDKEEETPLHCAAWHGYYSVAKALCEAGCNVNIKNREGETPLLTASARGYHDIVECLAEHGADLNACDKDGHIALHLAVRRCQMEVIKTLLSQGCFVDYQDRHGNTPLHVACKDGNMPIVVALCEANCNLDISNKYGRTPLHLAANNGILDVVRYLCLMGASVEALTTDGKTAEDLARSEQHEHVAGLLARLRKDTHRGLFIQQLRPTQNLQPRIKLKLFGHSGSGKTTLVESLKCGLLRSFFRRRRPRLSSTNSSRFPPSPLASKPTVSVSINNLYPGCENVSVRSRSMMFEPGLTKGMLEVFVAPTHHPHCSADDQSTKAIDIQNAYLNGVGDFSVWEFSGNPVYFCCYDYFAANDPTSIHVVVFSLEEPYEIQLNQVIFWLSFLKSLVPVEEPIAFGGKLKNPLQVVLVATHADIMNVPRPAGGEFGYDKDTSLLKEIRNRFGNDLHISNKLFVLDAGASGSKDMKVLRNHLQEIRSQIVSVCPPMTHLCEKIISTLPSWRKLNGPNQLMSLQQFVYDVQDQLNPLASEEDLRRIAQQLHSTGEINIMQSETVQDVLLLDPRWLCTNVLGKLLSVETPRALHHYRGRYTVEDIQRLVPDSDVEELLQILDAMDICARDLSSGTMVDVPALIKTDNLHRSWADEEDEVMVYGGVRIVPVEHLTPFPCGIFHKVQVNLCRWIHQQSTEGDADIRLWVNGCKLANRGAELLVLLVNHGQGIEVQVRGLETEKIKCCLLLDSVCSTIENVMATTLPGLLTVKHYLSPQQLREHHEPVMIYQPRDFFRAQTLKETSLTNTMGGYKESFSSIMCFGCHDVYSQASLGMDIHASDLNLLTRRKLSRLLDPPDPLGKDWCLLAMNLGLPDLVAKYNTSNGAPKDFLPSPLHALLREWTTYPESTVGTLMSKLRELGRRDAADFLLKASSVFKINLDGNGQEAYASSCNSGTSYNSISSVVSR
Cyclin-dependent kinase 19 (Homo sapiens), sequence (Q9BWU1 whole entry): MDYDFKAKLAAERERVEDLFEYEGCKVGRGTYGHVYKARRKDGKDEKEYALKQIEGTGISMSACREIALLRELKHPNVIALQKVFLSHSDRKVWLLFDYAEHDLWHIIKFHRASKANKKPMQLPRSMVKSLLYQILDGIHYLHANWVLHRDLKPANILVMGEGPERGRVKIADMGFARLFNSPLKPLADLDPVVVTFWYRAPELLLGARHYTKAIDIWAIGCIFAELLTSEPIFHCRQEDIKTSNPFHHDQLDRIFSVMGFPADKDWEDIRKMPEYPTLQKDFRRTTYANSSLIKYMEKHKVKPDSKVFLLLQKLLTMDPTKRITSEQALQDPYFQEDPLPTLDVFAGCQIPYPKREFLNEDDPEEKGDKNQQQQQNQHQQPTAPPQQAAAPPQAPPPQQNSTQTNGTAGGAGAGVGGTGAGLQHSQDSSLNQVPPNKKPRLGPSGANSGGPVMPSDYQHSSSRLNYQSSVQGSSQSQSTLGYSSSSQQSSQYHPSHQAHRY
Serine/threonine-protein kinase TBK1 (Homo sapiens), sequence (Q9UHD2 whole entry): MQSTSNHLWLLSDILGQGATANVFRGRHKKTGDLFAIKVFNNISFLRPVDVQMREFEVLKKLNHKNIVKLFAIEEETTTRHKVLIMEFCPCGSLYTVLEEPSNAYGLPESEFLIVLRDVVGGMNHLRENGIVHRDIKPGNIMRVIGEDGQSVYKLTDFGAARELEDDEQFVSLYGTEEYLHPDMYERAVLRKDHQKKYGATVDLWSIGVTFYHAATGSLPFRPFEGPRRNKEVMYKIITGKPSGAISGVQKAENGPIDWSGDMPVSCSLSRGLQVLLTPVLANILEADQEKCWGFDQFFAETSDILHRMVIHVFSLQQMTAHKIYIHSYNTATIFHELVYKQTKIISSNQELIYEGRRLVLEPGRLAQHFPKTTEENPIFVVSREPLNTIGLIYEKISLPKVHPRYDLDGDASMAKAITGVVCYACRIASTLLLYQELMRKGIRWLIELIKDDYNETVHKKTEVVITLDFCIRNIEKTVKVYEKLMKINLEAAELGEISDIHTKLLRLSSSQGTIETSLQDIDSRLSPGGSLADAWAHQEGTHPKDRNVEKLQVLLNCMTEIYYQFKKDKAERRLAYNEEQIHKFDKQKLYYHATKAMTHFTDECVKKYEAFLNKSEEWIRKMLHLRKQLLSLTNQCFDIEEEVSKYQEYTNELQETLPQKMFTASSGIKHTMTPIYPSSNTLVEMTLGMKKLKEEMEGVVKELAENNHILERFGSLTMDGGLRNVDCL
5-hydroxytryptamine receptor 1B (Homo sapiens), sequence (P28222 whole entry): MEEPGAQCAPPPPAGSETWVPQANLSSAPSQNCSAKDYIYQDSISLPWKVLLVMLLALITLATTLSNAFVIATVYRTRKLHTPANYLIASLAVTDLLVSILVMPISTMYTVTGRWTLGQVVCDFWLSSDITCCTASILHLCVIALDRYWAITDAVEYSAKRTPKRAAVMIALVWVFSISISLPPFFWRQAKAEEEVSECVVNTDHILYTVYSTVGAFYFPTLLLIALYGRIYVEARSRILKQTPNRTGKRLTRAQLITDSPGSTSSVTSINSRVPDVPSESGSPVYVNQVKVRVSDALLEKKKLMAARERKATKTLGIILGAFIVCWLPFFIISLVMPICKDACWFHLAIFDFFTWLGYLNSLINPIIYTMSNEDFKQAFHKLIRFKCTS
Muscarinic acetylcholine receptor M5 (Homo sapiens), sequence (P08912 whole entry): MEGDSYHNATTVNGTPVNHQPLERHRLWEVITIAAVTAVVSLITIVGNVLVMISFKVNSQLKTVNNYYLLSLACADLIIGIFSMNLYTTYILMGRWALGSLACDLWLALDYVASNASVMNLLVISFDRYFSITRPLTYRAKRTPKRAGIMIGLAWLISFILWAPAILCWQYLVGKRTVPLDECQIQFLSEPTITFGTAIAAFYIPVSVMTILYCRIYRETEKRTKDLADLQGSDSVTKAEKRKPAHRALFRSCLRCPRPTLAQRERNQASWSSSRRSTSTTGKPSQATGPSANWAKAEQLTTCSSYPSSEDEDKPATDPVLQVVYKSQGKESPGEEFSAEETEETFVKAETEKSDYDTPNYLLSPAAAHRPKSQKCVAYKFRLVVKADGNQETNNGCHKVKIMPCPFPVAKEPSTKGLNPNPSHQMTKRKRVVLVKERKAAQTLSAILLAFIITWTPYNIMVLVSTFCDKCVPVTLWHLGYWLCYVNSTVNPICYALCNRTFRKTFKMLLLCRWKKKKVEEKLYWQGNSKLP

O=c1nc(-c2ccccn2)sc2ccccc12 [BTZO-1]
inactive: inhibition [1] 4.81% | residual activity [2] 100% | residual activity [3] 100% | residual activity [4] 77% | residual activity [5] 100% | residual activity [6] 85% | residual activity [7] 100% | residual activity [8] 83% | residual activity [9] 100% | residual activity [10] 87% | residual activity [11] 100% | residual activity [12] 83% | residual activity [13] 100% | residual activity [14] 97% | residual activity [15] 84% | residual activity [16] 100% | inhibition [17] -7.5% | residual activity [18] 83% | residual activity [19] 99% | residual activity [20] 89% | inhibition [21] 0.132% | residual activity [22] 84% | inhibition [23] 9.69% | inhibition [24] -1.9% | residual activity [25] 100% | residual activity [26] 100% | residual activity [27] 100% | residual activity [28] 91% | residual activity [29] 89% | residual activity [30] 82% | residual activity [31] 100% | residual activity [32] 100% | residual activity [33] 100% | residual activity [34] 100% | residual activity [35] 87% | residual activity [36] 83% | residual activity [37] 99% | residual activity [38] 86% | residual activity [39] 77% | residual activity [40] 100% | residual activity [41] 91% | residual activity [42] 97% | residual activity [43] 100% | residual activity [44] 88% | residual activity [45] 71%

O=C1NC(c2ccccn2)Sc2ccccc21 (stereo not given) [BTZO-4]
inactive: inhibition [1] -0.624% | residual activity [2] 100% | residual activity [3] 94% | residual activity [4] 73% | residual activity [5] 85% | residual activity [6] 76% | residual activity [7] 100% | residual activity [8] 86% | residual activity [9] 88% | residual activity [10] 100% | residual activity [11] 100% | residual activity [12] 83% | residual activity [13] 91% | residual activity [14] 93% | residual activity [15] 78% | residual activity [16] 100% | inhibition [17] 0.557% | residual activity [18] 87% | residual activity [19] 100% | residual activity [20] 95% | inhibition [21] 12.7% | residual activity [22] 77% | inhibition [23] 24.7% | inhibition [24] 12.3% | residual activity [25] 78% | residual activity [26] 94% | residual activity [27] 100% | residual activity [28] 87% | residual activity [29] 88% | residual activity [30] 100% | residual activity [31] 90% | residual activity [32] 100% | residual activity [33] 100% | residual activity [34] 71% | residual activity [35] 93% | residual activity [36] 69% | residual activity [37] 100% | residual activity [38] 100% | residual activity [39] 60% | residual activity [40] 84% | residual activity [41] 58% | residual activity [42] 100% | residual activity [43] 100% | residual activity [44] 87% | residual activity [45] 78%
